“And” between values parts separate entries of the source, which are not always exact repeats. Equal entries are not always repeated.
What was measured:
Type in all cases: in vivo, mouse
Clinical chemistry panel = settings: small tumors; single-cycle study, 55.5 MBq; ~85 d
Hematology panel = settings: small tumors; single-cycle study, 55.5 MBq; ~85 d
[1] = Histopathology at necropsy and pathology severity scoring; settings: small tumors; single-cycle study; ~85 d; individual animals
[2] = Toxicity assessment: weight monitoring and removal criteria
HER2(+) BT-474 tumors = experiment: Biodistribution with modified BsAb / clearing agent time intervals (same-day PRIT); settings: for average blood uptake / average tumor uptake: 24 h p.i.
Procedure: During a second set of experiments (Table 31), the BsAb timing interval was varied, as well as the timing interval between the clearing agent and ^177Lu-DOTA-Bn. All animals were sacrificed 24 hours-post-injection of ^177Lu-DOTA-Bn.

[3] = medium tumors, single-cycle, 33.3 MBq, ~200 d
[4] = small tumors, single-cycle study, 55.5 MBq, ~85 d
[5] = BsAb for 4 hours, then CA vehicle only (total BsAb circulation 8 hours)
[6] = Table 30 group 3 (increased clearing agent dose)

With `Nc1ccc(CC2CN(CC(=O)[O-])CCN(CC(=O)[O-])CCN(CC(=O)[O-])CCN2CC(=O)[O-])cc1.[177Lu+3]` (stereo not shown) [^177Lu-DOTA-Bn] the ALT (Clinical chemistry panel) was 34 U/L and 40 U/L and 30 U/L and 45 U/L and 24 U/L, the BUN (Clinical chemistry panel) was 22 mg/dL and 21 mg/dL and 23 mg/dL and 33 mg/dL and 38 mg/dL and the CREA (Clinical chemistry panel) was 0.20 mg/dL and 0.18 mg/dL and 0.19 mg/dL and 0.30 mg/dL and 0.22 mg/dL. The HGB (Hematology panel) was 13.1 g/dL and 12.9 g/dL and 14.3 g/dL and 14.9 g/dL and 14.0 g/dL, the RBC (Hematology panel) was 8.22 M/μL and 7.74 M/μL and 8.54 M/μL and 8.80 M/μL and 8.32 M/μL and the “Histopathologic findings, Bone marrow” value [1] was “N”. For the same compound, the “Histopathologic findings, Kidney” value [1] was “N”, the “Histopathologic findings, Liver” value [1] was “N” and the “Histopathologic findings, Spleen” value [1] was “HH, 3. and N (2×)”. The “animals removed: Discovered deceased” value [2, 3] was 1/5, the “animals removed: Tumor burden” value [2, 3] was 4/5 and the “animals removed: Weight loss” value [2, 3] was 0/5. The “animals removed: Discovered deceased” value [2, 4] was 0/5, the “animals removed: Tumor burden” value [2, 4] was 0/5 and the “animals removed: Weight loss” value [2, 4] was 0/5. For the same compound, the “Tumor:Blood ratio” value (HER2(+) BT-474 tumors; [5]) was about 3.2, the blood uptake (HER2(+) BT-474 tumors; [5]) was 12.07 % ID/g and the tumor uptake (HER2(+) BT-474 tumors; [5]) was about 40 % ID/g. For the same compound, the average blood uptake (HER2(+) BT-474 tumors; Table 30 group 1) was 0.06, the average tumor uptake (HER2(+) BT-474 tumors; Table 30 group 1) was 11.62 and the average blood uptake (HER2(+) BT-474 tumors; [6]) was 0.03. For the same compound, the average tumor uptake (HER2(+) BT-474 tumors; [6]) was 4.14.
